Laboratory results from publication PMC10301922, “Anti-Oxidant, Anti-Mutagenic Activity and Safety Evaluation of Antrocin” (Toxics, 2023).
Values after ≈ are worked out from the molar mass of the structure shown.

Columns and labels:
[1] = MTT assay for cytotoxicity; type: cell-based, Chinese hamster; settings: Chinese hamster, CHO-K1 cells, read-out: cell viabilities
[2] = tested on: CHO-K1 cells; assay: MTT assay for cytotoxicity; type: cell-based, Chinese hamster; settings: Cricetulus griseus, MTT, 24 h, read-out: half maximal inhibitory concentration (IC50)
[3] = Ferric reducing ability of plasma (FRAP); settings: 10 mg/mL antrocin
Method: The following methodology describes the FRAP assay: Add 10 µL of sample to a 96-well plate. For each sample, a parallel sample was prepared as a sample background control. Add 4 µL of FRAP Positive Control to each well and make up to 10 µL with FRAP Assay Buffer. For standard curve preparation, add 0, 2, 4, 6, 8, and 10 µL of a 2 mM ferrous standard solution to the wells of a 96-well plate to generate 0, 4, 8, 12, 16, and 20 nmol/well of ferrous iron, respectively. Adjust the volume to 10 µL/well with FRAP Assay Buffer. Mix sufficient reagents for the number of tests to be performed, including: Add 190 µL of Reaction Mix to the wells of the standard curve, positive control, and test samples. Add 190 µL Background Control Mix to the sample background control wells and mix well. After 60 min of reaction at 37 °C, measure the absorbance at 594 nm. Subtract 0 nmol standard readings from all standard curve readings to draw a ferrous standard curve. If the sample background control is significant, subtract the background control reading from its paired sample reading. Apply the sample OD value to the ferrous standard curve to obtain the reduced ferrous ion B nmol generated during the reaction.
Use the following calculation to determine the mM ferrous equivalence of the sample.
Sample FRAP or mM ferrous equivalents = B × D/V = nmol/µL(2) […]

[4] = Trolox equivalent antioxidant capacity (TEAC); settings: 10 mg/mL antrocin
Method: The following methodology describes the TEAC assay: Add 40 μL of sample to a 96-well plate and adjust the volume to 100 μL with ddH2O. The absorbance of the sample should be within the linear range of the standard curve (0–20 nmol/well). The detection limit of this assay is approximately 0.1 nmol (or 1 µM) Trolox per well. For Trolox Standard Curve Preparation, dissolve lyophilized Trolox Standard in 20 µL of pure DMSO, add 980 µL of distilled water and mix well to generate a 1 mM solution, then aliquot the solution and store it at −20 °C for stable storage for 4 months. Add 0, 4, 8, 12, 16, 20 µL of Trolox standard to each well. Adjust the total volume to 100 µL with ddH2O to obtain 0, 4, 8, 12, 16, 20 nmol of Trolox standards, respectively. For preparation of working solutions, dilute 1 part of Cu^2+ reagent with 49 parts of Assay Diluent, and dilute enough working solution for detection. Add 100 µL of Cu^2+ working solution to standard wells and sample wells. After capping the plate and reacting at room temperature for 1.5 h, measure the absorbance at 570 nm. Draw a Trolox standard curve by subtracting the 0 nmol standard reading from all standard curve readings. […]
• Sa = the amount of sample (in nmol) read from the standard curve. • Sv = the undiluted sample volume added to the well.

[5] = tested on: Salmonella typhimurium TA102; assay: Ames test (plate incorporation), TA102
[6] = tested on: Salmonella typhimurium TA1537; assay: Ames test (plate incorporation), TA1537

SMILES: C=C1CC[C@H]2C(C)(C)CCC[C@@]23C(=O)OC[C@@H]13 [Antrocin, (-)-Antrocin]
- viability at 24 h, 31.25 μg/mL ([1]; 31.25 μg/mL): 81.3 ± 5%
- viability at 24 h, 62.5 μg/mL ([1]; 62.5 μg/mL): 62.9 ± 8.9%
- viability at 24 h, 250 μg/mL ([1]; 250 μg/mL): 24.8 ± 1.9%
- viability at 24 h, 500 μg/mL ([1]; 500 μg/mL): 22.1 ± 1.5%
- IC50 [2]: ~123 µg/mL (≈ 524 µM)
- Ferric Reducing Ability of Plasma (mM Ferrous Equivalent) [3]: 0.218 ± 0.004 mM Ferrous Equivalent
- Trolox Equivalent Antioxidant Capacity (mM Trolox Equivalents) [4]: 0.508 ± 0.003 mM Trolox equivalents
- Number of Revertant ([5]; TA102, with S9, 0.003125 mg/plate): 352.0 ± 8.5 Colony/Plate
- Number of Revertant ([5]; TA102, with S9, 0.00625 mg/plate): 326.7 ± 5.9 Colony/Plate
- Number of Revertant ([5]; TA102, with S9, 0.025 mg/plate): 327.3 ± 7.7 Colony/Plate
- Number of Revertant ([5]; TA102, with S9, 0.05 mg/plate): 322.0 ± 6.2 Colony/Plate
- Number of Revertant ([5]; TA102, without S9, 0.003125 mg/plate): 245.7 ± 10.4 Colony/Plate
- Number of Revertant ([5]; TA102, without S9, 0.00625 mg/plate): 246.0 ± 16.4 Colony/Plate
- Number of Revertant ([5]; TA102, without S9, 0.025 mg/plate): 278.3 ± 4.5 Colony/Plate
- Number of Revertant ([5]; TA102, without S9, 0.05 mg/plate): 270.0 ± 11.2 Colony/Plate
- Number of Revertant ([6]; TA1537, with S9, 0.003125 mg/plate): 11.7 ± 1.9 Colony/Plate
- Number of Revertant ([6]; TA1537, with S9, 0.00625 mg/plate): 6.7 ± 2.4 Colony/Plate
- Number of Revertant ([6]; TA1537, with S9, 0.025 mg/plate): 10.3 ± 2.1 Colony/Plate
- Number of Revertant ([6]; TA1537, with S9, 0.05 mg/plate): 6.0 ± 1.4 Colony/Plate
- Number of Revertant ([6]; TA1537, without S9, 0.003125 mg/plate): 14.3 ± 2.6 Colony/Plate
- Number of Revertant ([6]; TA1537, without S9, 0.00625 mg/plate): 8.7 ± 0.5 Colony/Plate
- Number of Revertant ([6]; TA1537, without S9, 0.025 mg/plate): 13.0 ± 2.2 Colony/Plate
- Number of Revertant ([6]; TA1537, without S9, 0.05 mg/plate): 9.7 ± 0.9 Colony/Plate
